What follows are molecules tested on CD34+CD45RA− cell (assay: Hematopoietic stem cell expansion assay (CD34+CD45RA− cell count versus DMSO vehicle cultures)). Conditions: Homo sapiens, concentration that results in a 50% increase in CD34+CD45RA− cell count compared to vehicle cultures (DMSO), Table 1, pyridopyrrolopyrimidine series, read-out: Biological data EC50.
Format: cell-based
Description: As used herein, the term “EC50” is intended to mean the concentration that results in a 50% increase in CD34+CD45RA− cell count compared to vehicle cultures (DMSO).
Screening Assay: screening assays were conducted as described in the inventors' previous patent application, WO 2013/110198.
The following biological assays were used to assess the effect of the compounds of the invention on hematopoietic stem cell expansion The results are illustrated in FIGS. 1 to 6. Culture medium: The culture medium used consisted of serum-free medium supplemented with the following recombinant cytokines: interleukin-6, thrombopoietin, Flt-3 ligand, and stem cell factor, each at a final concentration of 100 ng/ml, in the presence of vehicle (DMSO), positive control (SR1), or compound of the invention or a combination of compounds. Cell Culture: CD34+ cell purity of initial harvests was higher than 90%, as determined by flow cytometry. The CD34+ CD45RA− subpopulation reached purity levels higher than 70%. Cells were plated at 40,000 cells/ml and incubated for 7 to 12-days at 37° C. in 5% CO2. For long term cultures, 200,000 CD34+cells/ml from mobilized PB were plated with serum free media supplemented with interleukin-6, thrombopoietin, Flt3 ligand, and stem cell factor, each at a final concentration of 100 ng/ml, in the presence of vehicle (DMSO), positive control, or a compound of the invention at 500 nM.

Compared with `CNCCCNc1nc(Cc2ccccc2C)nc2[nH]c3cc(C(=O)OC)cnc3c12` [Compound 9, methyl 4-((3-(methylamino)propyl)amino)-2-(2-methylbenzyl)-9H-pyrido[2′,3′:4,5]pyrrolo[2,3-d]pyrimidine-7-carboxylate], `CNCCCNc1nc(Cc2cccc(F)c2)nc2[nH]c3cc(C(=O)OC)cnc3c12` [Compound 13] is higher in EC50: 500 to 1000 nM for the first, > 1000 nM for the second.

`COC(=O)c1cnc2c(c1)[nH]c1nc(Cc3ccccc3)nc(NCCCN3CCCCC3)c12` [Compound 1, methyl 2-benzyl-4-((3-(piperidin-1-yl)propyl)amino)-9H-pyrido[2′,3′:4,5]pyrrolo[2,3-d]pyrimidine-7-carboxylate] and `COC(=O)c1cnc2c(c1)[nH]c1nc(Cc3ccccc3C)nc(NCCCN3CCCCC3)c12` [Compound 7, methyl 2-(2-methylbenzyl)-4-((3-(piperidin-1-yl)propyl)amino)-9H-pyrido[2′,3′:4,5]pyrrolo[2,3-d]pyrimidine-7-carboxylate] fall in the same range of EC50: 250 to 500 nM for the first, 250 to 500 nM for the second.

First: COC(=O)c1cnc2c(c1)[nH]c1nc(Cc3cccc(F)c3)nc(NCCCN(C)CCCN)c12 [Compound 12, methyl 4-((3-((3-aminopropyl)(methyl)amino)propyl)amino)-2-(3-fluorobenzyl)-9H-pyrido[2′,3′:4,5]pyrrolo[2,3-d]pyrimidine-7-carboxylate]
Second: COC(=O)c1cnc2c(c1)[nH]c1nc(Cc3cccc(F)c3)nc(NCCCN3CCCCC3)c12 [Compound 11, methyl 2-(3-fluorobenzyl)-4-((3-(piperidin-1-yl)propyl)amino)-9H-pyrido[2′,3′:4,5]pyrrolo[2,3-d]pyrimidine-7-carboxylate]
The EC50 of the first is lower: 250 to 500 nM for the first, > 1000 nM for the second.

First: COC(=O)c1cnc2c(c1)[nH]c1nc(Cc3ccccc3)nc(N(C)CCCN3CCCCC3)c12 [Compound 6, methyl 2-benzyl-4-(methyl(3-(piperidin-1-yl)propyl)amino)-9H-pyrido[2′,3′:4,5]pyrrolo[2,3-d]pyrimidine-7-carboxylate]
Second: COC(=O)c1cnc2c(c1)[nH]c1nc(Cc3ccccc3C)nc(NCCCN3CCCC3)c12 [Compound 8, methyl 2-(2-methylbenzyl)-4-((3-(pyrrolidin-1-yl)propyl)amino)-9H-pyrido[2′,3′:4,5]pyrrolo[2,3-d]pyrimidine-7-carboxylate]
The EC50 of the first is lower: < 100 nM for the first, 250 to 500 nM for the second.

Compared with `COC(=O)c1cnc2c(c1)[nH]c1nc(Cc3ccccc3)nc(N3CCC(N(C)C)CC3)c12` [Compound 15, methyl 2-benzyl-4-(4-(dimethylamino)piperidin-1-yl)-9H-pyrido[2′,3′:4,5]pyrrolo[2,3-d]pyrimidine-7-carboxylate], `COC(=O)c1cnc2c(c1)[nH]c1nc(Cc3ccccc3)nc(NCC(C)CN(C)C)c12` (stereo not shown) [Compound 14, methyl 2-benzyl-4-((3-(dimethylamino)-2-methylpropyl)amino)-9H-pyrido[2′,3′:4,5]pyrrolo[2,3-d]pyrimidine-7-carboxylate] is higher in EC50: 100 to 250 nM for the first, 500 to 1000 nM for the second.

First: COC(=O)c1cnc2c(c1)[nH]c1nc(Cc3ccsc3)nc(SCCCN3CCCCC3)c12 [Compound 3, methyl 4-((3-(piperidin-1-yl)propyl)thio)-2-(thiophen-3-ylmethyl)-9H-pyrido[2′,3′:4,5]pyrrolo[2,3-d]pyrimidine-7-carboxylate]
Second: COC(=O)c1cnc2c(c1)[nH]c1nc(Cc3ccsc3)nc(NCCCN3CCCCC3)c12 [Compound 2, methyl 4-((3-(piperidin-1-yl)propyl)amino)-2-(thiophen-3-ylmethyl)-9H-pyrido[2′,3′:4,5]pyrrolo[2,3-d]pyrimidine-7-carboxylate]
The EC50 of the first is higher: 500 to 1000 nM for the first, 250 to 500 nM for the second.

First: COC(=O)c1cnc2c(c1)[nH]c1nc(Cc3cccc(OC)c3)nc(NCCCN3CCCCC3C)c12 (stereo not shown) [Compound 4, methyl 2-(3-methoxybenzyl)-4-((3-(2-methylpiperidin-1-yl)propyl)amino)-9H-pyrido[2′,3′:4,5]pyrrolo[2,3-d]pyrimidine-7-carboxylate]
Second: CCN(CC)CCNc1nc(Cc2cccc(OC)c2)nc2[nH]c3cc(C(=O)OC)cnc3c12 [Compound 5, methyl 4-((2-(diethylamino)ethyl)amino)-2-(3-methoxybenzyl)-9H-pyrido[2′,3′:4,5]pyrrolo[2,3-d]pyrimidine-7-carboxylate]
The EC50 of the first is lower: 250 to 500 nM for the first, 500 to 1000 nM for the second. The first is the more potent here.

`CCN(CC)CCN(CC)c1nc(Cc2ccccc2)nc2[nH]c3cc(C(=O)OC)cnc3c12` [Compound 16, methyl 2-benzyl-4-((2-(diethylamino)ethyl)(ethyl)amino)-9H-pyrido[2′,3′:4,5]pyrrolo[2,3-d]pyrimidine-7-carboxylate] and `Cn1nnc(-c2cnc3c(c2)[nH]c2nc(Cc4ccccc4)nc(N[C@H]4CC[C@H](N)CC4)c23)n1` [Compound 10, (1R,4R)—N^1-(2-benzyl-7-(2-methyl-2H-tetrazol-5-yl)-9H-pyrido[2′,3′:4,5]pyrrolo[2,3-d]pyrimidin-4-yl)cyclohexane-1,4-diamine] fall in the same range of EC50: 250 to 500 nM for the first, 250 to 500 nM for the second.

Same assay, conditions: Homo sapiens, concentration that results in a 50% increase in CD34+CD45RA− cell count compared to vehicle cultures (DMSO), Table 1′, pyrido[4,3-b]indole series, read-out: Biological data EC50

First: COC(=O)c1ccc2c(c1)[nH]c1cc(Cc3cccnc3)nc(NCCCN3CCOCC3)c12 [9′, methyl 1-((3-morpholinopropyl)amino)-3-(pyridin-3-ylmethyl)-5H-pyrido[4,3-b]indole-7-carboxylate]
Second: COC(=O)c1ccc2c(c1)[nH]c1cc(Cc3ccccc3)nc(NCCCN3CCCCC3)c12 [2′, methyl 3-benzyl-1-((3-(piperidin-1-yl)propyl)amino)-5H-pyrido[4,3-b]indole-7-carboxylate]
The EC50 of the first is higher: 500 to 1000 nM for the first, < 100 nM for the second. The second is the more potent here.

First: COC(=O)c1ccc2c(c1)[nH]c1cc(Cc3ccsc3)nc(N[C@H]3CC[C@H](N)CC3)c12 [13′, methyl 1-(((1r,4r)-4-aminocyclohexyl)amino)-3-(thiophen-3-ylmethyl)-5H-pyrido[4,3-b]indole-7-carboxylate]
Second: COC(=O)c1ccc2c(c1)[nH]c1cc(Cc3ccsc3)nc(NCCN(C)CCN)c12 [14′, methyl 1-((2-((2-aminoethyl)(methyl)amino)ethyl)amino)-3-(thiophen-3-ylmethyl)-5H-pyrido[4,3-b]indole-7-carboxylate]
The EC50 of the first is lower: 100 to 250 nM for the first, 250 to 500 nM for the second.

First: COC(=O)c1ccc2c(c1)[nH]c1ccnc(NCCCN3CCCCC3)c12 [1′, methyl 1-((3-(piperidin-1-yl)propyl)amino)-5H-pyrido[4,3-b]indole-7-carboxylate]
Second: COC(=O)c1ccc2c(c1)[nH]c1cc(Cc3ccsc3)nc(NCCCN3CCCCC3)c12 [10′, methyl 1-((3-(piperidin-1-yl)propyl)amino)-3-(thiophen-3-ylmethyl)-5H-pyrido[4,3-b]indole-7-carboxylate]
The EC50 of the first is higher: > 1000 nM for the first, 100 to 250 nM for the second.

`COC(=O)c1ccc2c(c1)[nH]c1cc(Cc3cccc(OC)c3)nc(NCCCCN3CCCC3)c12` [6′, methyl 3-(3-methoxybenzyl)-1-((4-(pyrrolidin-1-yl)butyl)amino)-5H-pyrido[4,3-b]indole-7-carboxylate] and `COC(=O)c1ccc2c(c1)[nH]c1cc(Cc3cccc(O)c3)nc(NCCCCN3CCCC3)c12` [7′, methyl 3-(3-hydroxybenzyl)-1-((4-(pyrrolidin-1-yl)butyl)amino)-5H-pyrido[4,3-b]indole-7-carboxylate] cannot be ordered by EC50: < 100 nM for the first, < 100 nM for the second.

Compared with `COC(=O)c1ccc2c(c1)[nH]c1cc(Cc3ccsc3)nc(NCCC[N+]3(CC(N)=O)CCCCC3)c12` [15′, 1-(2-amino-2-oxoethyl)-1-(3-((7-(methoxycarbonyl)-3-(thiophen-3-ylmethyl)-5H-pyrido[4,3-b]indol-1-yl)amino)propyl)piperidin-1-ium iodide], `COC(=O)c1ccc2c(c1)[nH]c1cc(Cc3ccsc3)nc(NCCN(C)CCNC(=O)OC(C)(C)C)c12` [8′, methyl 1-((2-((2-((tert-butoxycarbonyl)amino)ethyl)(methyl)amino)ethyl)amino)-3-(thiophen-3-ylmethyl)-5H-pyrido[4,3-b]indole-7-carboxylate] is higher in EC50: < 100 nM for the first, > 1000 nM for the second. The first is the more potent here.

Compared with `COC(=O)c1ccc2c(c1)[nH]c1cc(Cc3cccnc3)nc(N3CCC(N4CCCC4)CC3)c12` [11′, methyl 3-(pyridin-3-ylmethyl)-1-(4-(pyrrolidin-1-yl)piperidin-1-yl)-5H-pyrido[4,3-b]indole-7-carboxylate], `COC(=O)c1ccc2c(c1)[nH]c1cc(Cc3ccccc3)nc(NCCN3CCCC3)c12` [3′, methyl 3-benzyl-1-((2-(pyrrolidin-1-yl)ethyl)amino)-5H-pyrido[4,3-b]indole-7-carboxylate] is lower in EC50: > 1000 nM for the first, < 100 nM for the second. The second is the more potent here.

Compared with `CNCCCN(C)c1nc(Cc2cccnc2)cc2[nH]c3cc(C(=O)OC)ccc3c12` [12′, methyl 1-(methyl(3-(methylamino)propyl)amino)-3-(pyridin-3-ylmethyl)-5H-pyrido[4,3-b]indole-7-carboxylate], `COC(=O)c1ccc2c(c1)[nH]c1cc(Cc3ccccc3)nc(N(C)CCCN(C)C)c12` [4′, methyl 3-benzyl-1-((3-(dimethylamino)propyl)(methyl)amino)-5H-pyrido[4,3-b]indole-7-carboxylate] is lower in EC50: > 1000 nM for the first, < 100 nM for the second.

Work on `Cn1nnc(-c2ccc3c(c2)[nH]c2cc(Cc4ccccc4)nc(NCCCN4CCCCC4)c23)n1` [5′, 3-benzyl-7-(2-methyl-2H-tetrazol-5-yl)-N-(3-(piperidin-1-yl)propyl)-5H-pyrido[4,3-b]indol-1-amine] yielded an EC50 of 100 to 250 nM.

— US10647718B2, “Compounds and use thereof in the expansion of hematopoietic stem cells and/or hematopoietic progenitor cells” (UNIVERSITÉ DE MONTRÉAL, priority 2014, dated 2020)
